Results reported in paper PMC9780942, “Antimicrobial Activity and Immunomodulatory Properties of Acidocin A, the Pediocin-like Bacteriocin with the Non-Canonical Structure” (Membranes, 2022).
Positions of bridges follow the written chain, without caps; N, C: chain ends. No end group written: not given here.

Key:
L. monocytogenes EGD = assay type: cell-based, Listeria monocytogenes; details: 24 h
In short: (§1)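 MIC read as the minimum peptide concentration without visible growth, aided by 2 h resazurin (20 µg/mL) when needed. Cells from mid-log cultures (10^6 CFU/mL, 2x MHB or 3% TSB for Listeria) met two-fold bacteriocin dilutions in 0.1% BSA for 24 h at 37 °C with shaking.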

A. baumannii XDR CI 2675 = assay type: cell-based; details: XDR CI 2675, 24 h
In short: as §1

B. subtilis B-886 = assay type: cell-based; details: B-886, 24 h
In short: as §1

E. coli ML-35p = assay type: cell-based; details: 24 h
In short: as §1

E. coli SQ110 = assay type: cell-based; details: SQ110, 24 h
In short: as §1

M. phlei Ac-1221 = assay type: cell-based; details: 24 h
In short: as §1

[1] = test system: P. aeruginosa MDR CI 1995; assay type: cell-based; details: MDR CI 1995, 24 h
In short: as §1

S. aureus 209P = assay type: cell-based; details: 24 h
In short: as §1

[2] = test system: E. coli ML-35p cytoplasmic membrane; assay: Cytoplasmic membrane permeability assay with ONPG; assay type: cell-based; details: PBS pH 7.4 with NaCl, 35 °C, absorbance 405 nm, three independent experiments
Protocol: The ability of the peptides to disrupt the integrity of bacterial membranes was assessed using chromogenic substrates that are unable to enter the intact cell. For these assays, E. coli strain ML-35p was chosen that constitutively expresses β-lactamase (secreted into the periplasmic space), β-galactosidase (that is active in cytoplasm), and lacks lactose permease. Nitrocefin, which is a substrate for lactamase, served as an indicator of increased outer membrane permeability. o-Nitrophenyl-β-D-galactopyranoside (ONPG), a substrate for […], was used to assess the integrity of the cytoplasmic membrane. The bacterial cultures were grown to stationary phase in 3% TSB medium at 37 °C overnight. The cells were washed three times with cold 10 mM phosphate-buffered saline (PBS), pH 7.4 ([…], 2.7 mM KCl, 10 mM Na2HPO4, 1.76 mM KH2PO4), and diluted to the concentration of 3.3 × 10^7 CFU/mL with 10 mM PBS (pH 7.4), containing increased concentration of NaCl (1.2%, or 205 mM) and dissolved nitrocefin (Merck-Millipore, Burlington, MA, USA) or ONPG (AppliChem GmbH, Darmstadt, Germany). […] The plate was incubated at 35 °C, 500 rpm, and the absorbance of the hydrolysis products of ONPG or nitrocefin was measured spectrophotometrically at regular intervals at 405 nm or 492 nm, respectively, using AF2200 microplate reader (Eppendorf, Hamburg, Germany). […]

[3] = test system: primary CD14+ blood monocytes; assay: Cytokine response by human monocytes, multiplex xMAP; assay type: cell-based; details: 2 µM peptide, 24 h, supernatant; for MCP-3: untreated control 52.14; for TNFa: untreated control 67.34; for PDGF-AB/BB: untreated control 86.09; for MIG: untreated control 205.59

For “TYYGNGVSCNKKGCSVDWGKAISIIGNNSAANLATGGAAGWKS (disulfide 9-14) [Avicin A]”, the “Minimum Inhibitory Concentration” value (L. monocytogenes EGD) was less than 0.125 µM, the “Minimum Inhibitory Concentration” value (A. baumannii XDR CI 2675) was greater than 32 µM and the “Minimum Inhibitory Concentration” value (B. subtilis B-886) was greater than 32 µM. The “Minimum Inhibitory Concentration” value (E. coli ML-35p) was greater than 32 µM, the “Minimum Inhibitory Concentration” value (E. coli SQ110) was greater than 32 µM and the “Minimum Inhibitory Concentration” value (M. phlei Ac-1221) was greater than 32 µM. The “Minimum Inhibitory Concentration” value [1] was greater than 32 µM, the “Minimum Inhibitory Concentration” value (S. aureus 209P) was greater than 32 µM and the “Effect on cytoplasmic membrane integrity (ONPG hydrolysis kinetics)” value [2] was “melittin >> acidocin A ≈ pediocin box mutants > peptides without a disulfide bond > avicin A >> AviA(T)”. For the same sequence, the IL-1b ([3]; untreated control 2.28) was 17.13 pg/mL, the IL-6 ([3]; untreated control 4.48) was 2787 pg/mL and the VEGFa ([3]; untreated control 5.44) was <1.52↓ pg/ml. It also gave an MIP-1a ([3]; untreated control 11.73) of 6628 pg/mL, a PDGF-AA ([3]; untreated control 12.5) of 10.87 pg/mL and a sCD40L ([3]; untreated control 15.86) of 45.71 pg/mL. For the same sequence, the IP-10 ([3]; untreated control 19.67) was 21.71 pg/mL, the MIP-1b ([3]; untreated control 34.63) was 3805 pg/mL and the MCP-3 [3] was 227 pg/mL. The MCP-3 ([3]; listed as AviA) was 227.15 pg/mL, the TNFa [3] was 17,982 pg/ml and the TNFa ([3]; listed as AviA) was 17982 pg/mL. For the same sequence, the PDGF-AB/BB [3] was 99 pg/mL, the PDGF-AB/BB ([3]; listed as AviA) was 99.49 pg/mL and the MIG [3] was 729 pg/mL. The MIG ([3]; listed as AviA) was 729.91 pg/mL, the IL-1RA ([3]; untreated control 261.2) was 253.61 pg/mL and the GROa ([3]; untreated control 311.89) was 4832 pg/mL. For the same sequence, the MDC ([3]; untreated control 463.06) was 2303 pg/mL, the MCP-1 ([3]; untreated control 464.5) was 3950 pg/mL and the IL-8 ([3]; untreated control 12488) was >36420↑ pg/ml. The IL-7 ([3]; untreated control <0.20) was <0.20↓ pg/ml, the IL-18 ([3]; untreated control <0.20) was <0.20↓ pg/ml and the IL-5 ([3]; untreated control <0.26) was <0.26↓ pg/ml. For the same sequence, the IL-4 ([3]; untreated control <0.33) was <0.33↓ pg/ml, the TNFb ([3]; untreated control <0.49) was 7.81 pg/mL and the TGF-a ([3]; untreated control <0.53) was 2.38 pg/mL. The IL-3 ([3]; untreated control <0.68) was <0.68↓ pg/ml, the IL-2 ([3]; untreated control <0.85) was 0.86 pg/mL and the IL-10 ([3]; untreated control <1.23) was 4.28 pg/mL. For the same sequence, the FLT-3L ([3]; untreated control <1.35) was <1.35↓ pg/ml, the GM-CSF ([3]; untreated control <1.39) was 12.72 pg/mL and the IL-15 ([3]; untreated control <1.45) was 1.55 pg/mL. The “IL-12 (p70)” value ([3]; untreated control <1.58) was <1.58↓ pg/ml, the IFNg ([3]; untreated control <1.79) was <1.79↓ pg/ml and the IL-17A ([3]; untreated control <2.00) was <2.00↓ pg/ml. For the same sequence, the IL-1a ([3]; untreated control <2.78) was 10.22 pg/mL, the RANTES ([3]; untreated control <2.79) was 638.27 pg/mL and the IL-13 ([3]; untreated control <2.90) was 7.71 pg/mL. The G-CSF ([3]; untreated control <3.18) was 190 pg/mL, the “IL-12 (p40)” value ([3]; untreated control <3.18) was 19.93 pg/mL and the G-CSF ([3]; untreated control <3.18, listed as AviA) was 190.3 pg/mL. For the same sequence, the IFNa2 ([3]; untreated control <3.89) was 4.69 pg/mL, the Eotaxin ([3]; untreated control <4.09) was <4.09↓ pg/ml and the IL-9 ([3]; untreated control <4.87) was 6.5 pg/mL. It also gave an EGF ([3]; untreated control <4.94) of 6.51 pg/mL, an IL-22 ([3]; untreated control <7.95) of 15.81 pg/mL and an IL-27 ([3]; untreated control <11.45) of 31.07 pg/mL. The FGF-2 ([3]; untreated control <12.00) was 33.02 pg/mL, the IL-17F ([3]; untreated control <14.61) was <14.61↓ pg/ml and the Fractalkine ([3]; untreated control <19.20) was <19.20↓ pg/ml. For the same sequence, the IL-17E/IL-25 ([3]; untreated control <19.97) was <19.97↓ pg/ml and the M-GSF ([3]; untreated control <23.43) was 261.13 pg/mL.
